Results on 1 molecule are retold here after patent US10987349B2, “Antitumor agent and bromodomain inhibitor” (FUJIFILM Corporation, priority 2016, dated 2021).

A short description of data set [1]: Intravenous administration toxicity test on rats. Type of data set: in vivo, rat. As for the experimental part:
With reference to the above-described findings, the compound of the present example was administered to rats via repeated intravenous administration, and the influence of the compound on the body weight and the digestive tract was then evaluated.
The compound of Example 14 was dissolved in a solvent (a normal saline containing 1 equivalent of hydrochloric acid), and the obtained solution was then intravenously administered to 6-week-old male SD rats (Charles River Laboratories Japan) at a dose of 30 to 60 mg/kg, once a day, for 7 days. As a negative control, a solvent administration group involving administration of a normal saline was established. At the time of the final administration, the plasma concentration of the compound of Example 14 was measured. […] Moreover, a weight reduction was not observed during the administration period. Furthermore, on the day following the final administration, pathological evaluation was carried out.

A further data set relates to Raji. Description: Cell growth test (Cell Titer Blue) Raji. Type of data set: cell-based. The conditions noted are these: Homo sapiens, 72 h, Lymphoma (DSMZ), 3 days. As to the method: (§1) Moreover, the compound of Example 14 was subjected to a cell growth test using various types of cell lines.
(§2) All cell lines other than the below-noticed cells were each seeded in a well plate, in which an RPMI-1640 medium supplemented with penicillin/streptomycin and FBS with a final concentration of 10% was placed. The human prostate cancer cell line VCaP (ATCC) was seeded in a well plate, in which DMEM medium supplemented with penicillin/streptomycin and FBS with a final concentration of 10% was placed. […] Thereafter, using Enspire Multimode Plate Reader (PerkinElmer), the amount of fluorescence at an excitation wavelength of 531 nm and a fluorescence wavelength of 615 nm was measured. Since the amount of fluorescence is in proportion to the concentration of a florescent product resorufin that is converted from resazurin as a redox dye by living cells, the amount of fluorescence was used as an indicator of the number of living cells. The growth inhibition percentage of the test compound in each concentration was calculated according to the following equation. Growth inhibition percentage (%)=(amount of fluorescence in test compound−added well)/(amount of fluorescence in DMSO−added well)×100 […]
(In general: Alamar Blue is a resazurin reagent that responds to reducing activity.)

A further data set relates to HL-60. Description: Cell growth test (Cell Titer Blue) HL-60. Type of data set: cell-based. The conditions noted are these: Homo sapiens, 72 h, HL-60, Acute myeloid leukemia, 3 days. As for the experimental part: as §1, §2
Another data set has as its system HEXIM1 gene. The data set is described as follows: Expression of HEXIM1 gene in MV4-11 cells, RT-PCR. The settings on record: MV4-11 cells, 10, 30 or 100 nmol/L, 6 hours. It counts as cell-based, human. As for the experimental part:
(§3) A fluctuation in the expression of c-Myc, IL-7R and HEXIM1 genes in MV4-11 (ATCC) cells treated with the test compound was analyzed according to a reverse transcription polymerase chain reaction (RT-PCR) method.
(§4) MV4-11 cells were cultured for 6 hours in an RPMI-1640 medium supplemented with penicillin/streptomycin and FBS with a final concentration of 10%, to which the compound of Example 14 was added to a concentration of 10 nmol/L, 30 nmol/L or 100 nmol/L. On the other hand, a non-treatment group (Non-treatment) was established by culturing MV4-11 cells for 6 hours in the above-described medium, to which the compound of Example 14 was not added. Using Rneasy (registered trademark) (Qiagen), RNA was extracted from the above-described MV4-11 cells in accordance with the instruction manual included with the aforementioned device. […] Thereafter, a PCR reaction was carried out for 40 cycles (a cycle consisting of 95° C.-5 seconds and 60° C.-30 seconds.) Subsequently, the obtained reaction product was measured.
(§5) As a housekeeping gene, the expression level of GAPDH (Glyceraldehyde 3-phosphate dehydrogenase) was also evaluated. The ratio of the expression level of the mRNA of each of c-Myc, IL-7R and HEXIM1 to the expression level of GAPDH was calculated, and the expression level of each gene (relative expression level) was then quantified. […]

Another data set deals with SW-620. Description: Cell growth test (Cell Titer Blue) SW-620. It counts as cell-based. The conditions noted are these: Homo sapiens, 72 h, SW-620, Colon cancer, 3 days. As for the experimental part: as §1, §2
The next data set relates to HT-29. Description: Cell growth test (Cell Titer Blue) HT-29. It counts as cell-based. The conditions noted are these: Homo sapiens, 72 h, HT-29, Colon cancer, 3 days. As to the method:
as §1, §2

Another data set has as its system c-Myc gene. The data set is described as follows: Expression of c-Myc gene in MV4-11 cells, RT-PCR. Type of data set: cell-based, human. The settings on record: MV4-11 cells, 10, 30 or 100 nmol/L, 6 hours. As to the method: as §3, §4, §5
In a further data set the test system is WSU-DLCL2. Description: Cell growth test (Cell Titer Blue) WSU-DLCL2. Type of data set: cell-based. The settings on record: Homo sapiens, WSUDLCL2, 72 h, WSU-DLCL2, Lymphoma, 3 days. As for the experimental part: as §1, §2
The test system of the next data set is MDA-MB-435. The data set is described as follows: Cell growth test (Cell Titer Blue) MDA-MB-435. Type of data set: cell-based. The settings on record: Homo sapiens, 72 h, MDA-MB-435, Melanoma, 3 days. As to the method: as §1, §2
For a further data set, the system named is MDA-MB-468. The data set is described as follows: Cell growth test (Cell Titer Blue) MDA-MB-468. Type of data set: cell-based. The settings on record: Homo sapiens, 72 h, MDA-MB-468, Breast cancer, 3 days. As to the method: as §1, §2
The subject of the next data set is NCI-H522. Description: Cell growth test (Cell Titer Blue) NCI-H522. Type of data set: cell-based. The settings on record: Homo sapiens, 72 h, NCI-H522, Lung cancer, 3 days. As to the method: as §1, §2
[2] abbreviates: male SD rats, intravenously 30 to 60 mg/kg, once a day, 7 days.

By GI50 is commonly meant the concentration that inhibits growth by half. Read a low GI50 as more potent growth inhibition. On to `CCn1c(=O)cc(C2CCN(C)CC2)c2cc(C(=O)N(C)c3ccc(C)cc3)ccc21` [Example 14, 1-Ethyl-N-methyl-N-(4-methylphenyl)-4-(1-methylpiperidin-4-yl)-2-oxo-1,2-dihydroquinoline-6-carboxamide], for which the “plasma concentration at the time of the final administration” value in data set [1] (setting [2]) was “increased in proportion to the applied dose”. Besides, the “weight reduction during the administration period” value in [1] (setting [2]) was “not observed”. For the same molecule, in data set [1] (male SD rats, intravenously 30 to 60 mg/kg, once a day, 7 days, day following the final administration), the “pathological evaluation of gastrointestinal epithelial cells including gastrointestinal epithelial stem cells” value is recorded as “no disorders were found”. Further, the “AUC without weight reduction relative to the AUC upon intravenous administration in Test Example 3” value in data set [1] (rats, intravenous) worked out at 3.8 times. For the same molecule, the GI50 in the data set on Raji was found to be 203 nM; with HL-60, 27 nM; with SW-620, 273 nM; in the data set on HT-29, 120 nM; in the data set with WSU-DLCL2 it was 91 nM; in the data set on MDA-MB-435 it was 2780 nM. The GI50 in the data set on MDA-MB-468 was found to be 1200 nM; in the data set on NCI-H522, 155 nM. The “mRNA expression of HEXIM1 (GAPDH correction)” value in the data set with HEXIM1 gene is “increased”. Moreover, the “mRNA expression of c-Myc (GAPDH correction)” value with c-Myc gene is listed as “decreased in a compound concentration-dependent manner”.
